{"source": "PubChem BioAssay (NCI)", "test_system": "MDA-MB-468 breast", "test": "NCI anticancer screen, dose series, 48 h", "note": "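Cultured in 96-well plates, cells were exposed to test compound for 48 hours across five concentrations. Abbreviation: GI50, concentration required for 50% inhibition of growth. TGI marks complete inhibition of growth.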", "data": [{"smiles": "O=C(Nc1ccccc1)Nc1nc2ccc([N+](=O)[O-])cc2s1", "values": [{"measurement": "GI50", "value": 755, "unit": "nM"}, {"measurement": "TGI", "value": 4.45, "unit": "µM"}]}, {"smiles": "CCc1n(Cc2ccc3ccccc3n2)cc[n+]1Cc1ccc2ccccc2n1", "values": [{"measurement": "TGI", "value": 0.0994, "unit": "µM"}]}, {"smiles": "Clc1ccc(N2N=C(c3cccc(Nc4ccncc4)c3)CC2c2ccc3c(c2)OCO3)cc1", "note": "(stereo unspecified)", "values": [{"measurement": "GI50", "value": 1590, "unit": "nM"}, {"measurement": "TGI", "value": 3.08, "unit": "µM"}]}, {"smiles": "CC(C)CNCC(O)COc1ccc(C(C)(C)c2ccc(OCC(O)CNCC(C)C)cc2)cc1", "note": "(stereo unspecified)", "values": [{"measurement": "GI50", "value": 2180, "unit": "nM"}, {"measurement": "TGI", "value": 4.91, "unit": "µM"}]}, {"smiles": "C=CCN(/C=C1/C(=O)O[C@H](COC)[C@@]2(C)C1=C(O)C(=O)C1=C2[C@H](OC(C)=O)C[C@]2(C)C(=O)CC[C@@H]12)CC=C", "values": [{"measurement": "GI50", "value": 101, "unit": "nM"}, {"measurement": "TGI", "value": 0.779, "unit": "µM"}]}, {"smiles": "CCC(=O)O[C@H]1CC[C@H]2[C@@H]3CC[C@H]4CC(=O)[C@H](C)C[C@]4(C)[C@H]3CC[C@]12C", "values": [{"measurement": "GI50", "value": 33900, "unit": "nM"}, {"measurement": "TGI", "value": "> 100", "unit": "µM"}]}, {"smiles": "C[C@H](NC(=O)[C@@H]1CSSC[C@@H](NC(=O)c2nc3ccccc3cc2O)C(=O)NCC(=O)N1C)c1ccccc1", "values": [{"measurement": "GI50", "value": 5890, "unit": "nM"}, {"measurement": "TGI", "value": 13.2, "unit": "µM"}]}, {"smiles": "CCOC(=O)C1(Br)C(c2ccccc2)NC(=O)NC1(C)Br", "note": "(stereo unspecified)", "values": [{"measurement": "GI50", "value": 24000, "unit": "nM"}, {"measurement": "TGI", "value": 70.5, "unit": "µM"}]}, {"smiles": "CCCc1c(CC)c(=N)c2ccccc2n1C", "values": [{"measurement": "GI50", "value": 3220, "unit": "nM"}, {"measurement": "TGI", "value": 48.7, "unit": "µM"}]}, {"smiles": "C=C1SC(=Nc2c(C)cc(C)cc2C)N(C(=O)c2sc3ccccc3c2Cl)C12CCCCC2", "values": [{"measurement": "GI50", "value": "> 100000", "unit": "nM"}, {"measurement": "TGI", "value": "> 100", "unit": "µM"}]}, {"smiles": "CC[C@@]1(O)C[C@H](OC2CC(N(C)C)C(OC3CC(O)C(OC4CCC(=O)C(C)O4)C(C)O3)C(C)O2)c2c(cc3c(c2O)C(=O)c2c(O)cccc2C3=O)[C@H]1C(=O)OC", "note": "(stereo partly specified)", "values": [{"measurement": "GI50", "value": 17, "unit": "nM"}, {"measurement": "TGI", "value": 0.123, "unit": "µM"}]}, {"smiles": "O=[N+]([O-])c1ccc(S(=O)Cc2ccccc2)c([N+](=O)[O-])c1", "note": "(stereo unspecified)", "values": [{"measurement": "GI50", "value": 1700, "unit": "nM"}, {"measurement": "TGI", "value": 3.13, "unit": "µM"}]}, {"smiles": "COc1ccc2c(c1)c(CC(=O)[Se]CC#N)c(C)n2C(=O)c1ccc(Cl)cc1", "values": [{"measurement": "GI50", "value": 1200, "unit": "nM"}, {"measurement": "TGI", "value": 3.2, "unit": "µM"}]}, {"smiles": "COc1cc2c(c(OC)c1OC)-c1ccc(N)c(=O)cc1[C@@H](NC(C)=O)CC2", "values": [{"measurement": "GI50", "value": "< 10", "unit": "nM"}]}, {"smiles": "CC(=O)N(O)CCCCCNC(=O)CCC(=O)N(O)CCCCCNC(=O)CCC(=O)N(O)CCCCCN(CCCCCCCCCC[P+](c1ccccc1)(c1ccccc1)c1ccccc1)CCCCCCCCCC[P+](c1ccccc1)(c1ccccc1)c1ccccc1", "values": [{"measurement": "GI50", "value": 1680, "unit": "nM"}, {"measurement": "TGI", "value": 5.41, "unit": "µM"}]}, {"smiles": "COc1ccc(Nc2ncc(Br)c(NCCCNC(=O)C3CCC3)n2)cc1", "values": [{"measurement": "GI50", "value": 15400, "unit": "nM"}, {"measurement": "TGI", "value": 37, "unit": "µM"}]}, {"smiles": "CCN(CC)CCNc1ccc([N+](=O)[O-])c2sc3ccccc3c(=O)c12", "values": [{"measurement": "GI50", "value": 1450, "unit": "nM"}, {"measurement": "TGI", "value": 5.07, "unit": "µM"}]}, {"smiles": "O=C1C(c2c[nH]c3ccccc23)=C(c2c[nH]c3ccccc23)C(=O)N1O", "values": [{"measurement": "GI50", "value": "> 25000", "unit": "nM"}, {"measurement": "TGI", "value": "> 25", "unit": "µM"}]}, {"smiles": "FC(F)(F)c1cc(-c2nnc3n2N=C(N2CCCC2)CS3)cc(C(F)(F)F)c1", "values": [{"measurement": "GI50", "value": 32000, "unit": "nM"}, {"measurement": "TGI", "value": "> 50", "unit": "µM"}]}]}
